Test system: diabetic foot ulcer
Test: anecdotal report: insulin-dependent diabetic patient with diabetic foot ulcer treated with sildenafil
Format: in vivo, human
Conditions: one patient
Excerpt: The efficacy of the cGMP PDE5 inhibitors in treating neuropathy in human patients is illustrated by the following anecdotal report. The patient was an insulin-dependent diabetic who had been suffering from erectile dysfunction and who subsequently developed a diabetic foot ulcer. During treatment of their erectile dysfunction with sildenafil it was noted that their foot ulcer, which they had had for approximately two years, was healing. The patient had been through various courses of treatment with minimal results. They had seen vascular surgeons, podiatrists and had visited wound care clinics. Ultimately, they were hopitalised for approximately one month on IV antibiotics etc, and the threat was very real that the patient was going to require a below-the-knee amputation. At times the ulcer would appear to be healing only to re-occur, returning to its pre-treatment size and depth. […] The patient was instructed to continue taking 50 mg of Sildenafil once a day.

With `CCCc1nn(C)c2c(=O)[nH]c(-c3cc(S(=O)(=O)N4CCN(C)CC4)ccc3OCC)nc12` [Sildenafil, 5-[2-ethoxy-5-(4-methylpiperazin-1-ylsulphonyl)-phenyl]-1,6-dihydro-1-methyl-3-propylpyrazolo [4,3-d]pyrimidine-7-one] the “outcome of the diabetic foot ulcer” value (ulcer present approximately two years, 50 mg of Sildenafil once a day) was “complete resolution of the diabetic foot ulcer within one month”, the “ulcer size after start of treatment” value (Sildenafil treatment begun for erectile dysfunction) was “decreasing in size” and the “re-occurrence of ulcer on continued treatment” value (same treatment (50 mg once a day) continued for the past two years) was “without re-occurrence”.

Source: US20030176442A1, “Treatment of diabetic ulcers” (priority 2000, published 2003)
